Laboratory results: the supplement of paper PMC10307832

Tests used:
Experiment in all cases: relative viability (nuclei count vs DMSO), 5 days (fraction); higher = more cells survive
[1] = compound: C1=CC=C2C(=C1)C=CC(=C2SSC3=C(C=CC4=CC=CC=C43)O)O [IPA-3] + CC1(C)CCC(c2ccc(Cl)cc2)=C(CN2CCN(c3ccc(C(=O)NS(=O)(=O)c4ccc(N[C@H](CCN5CCOCC5)CSc5ccccc5)c(S(=O)(=O)C(F)(F)F)c4)cc3)CC2)C1 [Navitoclax] (partner 0.5 µM)
Outline: (§1)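 Relative viability equals treated-well nuclei counts divided by vehicle-well nuclei counts. Counts came from 4× images of lung cancer cell lines grown in 1536-well plates for 5 days after pin-tool dosing on the day after seeding. Dosing used one drug alone or a fixed anchor-drug dose plus five library-drug doses (not always all listed) in √10 steps, and values are medians of duplicate plates.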

[2] = compound: C1=CC=C2C(=C1)C=CC(=C2SSC3=C(C=CC4=CC=CC=C43)O)O [IPA-3] + CS(=O)(=O)CCNCc1ccc(-c2ccc3ncnc(Nc4ccc(OCc5cccc(F)c5)c(Cl)c4)c3c2)o1 [Lapatinib] (partner 2 µM)
Outline: as §1

[3] = compound: Cc1ccc(-n2nc(C(C)(C)C)cc2NC(=O)Nc2ccc(OCCN3CCOCC3)c3ccccc23)cc1 [Doramapimod] + CC(C)C[C@H](NC(=O)[C@H](Cc1ccccc1)NC(=O)c1cnccn1)B(O)O [Bortezomib] (partner 0.002 µM)
Outline: as §1

[4] = compound: Cc1ccc(-n2nc(C(C)(C)C)cc2NC(=O)Nc2ccc(OCCN3CCOCC3)c3ccccc23)cc1 [Doramapimod] + C[C@]1(O)C[C@@H](c2nc(-c3ccc4ccc(-c5ccccc5)nc4c3)c3c(N)nccn32)C1 [Linsitinib] (partner 1 µM)
Outline: as §1

Row | Cell Line | relative viability ([1]; first compound 0.2 µM) | relative viability ([1]; first compound 0.6325 µM) | relative viability ([1]; first compound 2 µM) | relative viability ([1]; first compound 6.325 µM) | relative viability ([1]; first compound 20 µM) | relative viability ([2]; first compound 0.2 µM) | relative viability ([2]; first compound 0.6325 µM) | relative viability ([2]; first compound 2 µM) | relative viability ([2]; first compound 6.325 µM) | relative viability ([2]; first compound 20 µM) | relative viability ([3]; first compound 0.02 µM) | relative viability ([3]; first compound 0.06325 µM) | relative viability ([3]; first compound 0.2 µM) | relative viability ([3]; first compound 0.6325 µM) | relative viability ([3]; first compound 2 µM) | relative viability ([4]; first compound 0.02 µM) | relative viability ([4]; first compound 0.06325 µM) | relative viability ([4]; first compound 0.2 µM) | relative viability ([4]; first compound 0.6325 µM) | relative viability ([4]; first compound 2 µM)
1 | HCC-78 | 0.915 | 0.75 | 0.706 | 0.764 | 1.01 | 1.01 | 0.7 | 0.924 | 0.763 | 1.02 | 0.334 | 0.49 | 0.432 | 0.642 | 0.457 | 0.399 | 0.429 | 0.466 | 0.527 | 0.514
2 | NCI-H2085 | 1.15 | 0.985 | 1.25 | 1.14 | 1.18 | 0.931 | 0.723 | 0.741 | 0.712 | 0.825 | 1.03 | 1 | 0.952 | 1.06 | 0.945 | 0.898 | 0.939 | 0.873 | 0.876 | 0.864
3 | H3255 | 0.543 | 0.523 | 0.446 | 0.566 | 0.603 | 0.213 | 0.277 | 0.184 | 0.2 | 0.23 | 0.788 | 0.883 | 0.833 | 0.619 | 0.668 | 1.02 | 0.908 | 0.913 | 0.97 | 0.871
4 | NCI-H2087 | 1.15 | 0.863 | 0.837 | 0.859 | 0.926 | 0.832 | 0.987 | 0.982 | 1.06 | 0.811 | 0.931 | 0.866 | 0.79 | 0.771 | 0.768 | 0.976 | 1.13 | 0.939 | 0.962 | 0.951
5 | LC-2-ad | 0.526 | 0.334 | 0.444 | 0.454 | 0.685 | 1.04 | 1 | 1.04 | 0.961 | 1.09 | 0.985 | 1.12 | 1.06 | 1.14 | 0.94 | 0.856 | 0.802 | 0.95 | 0.88 | 0.684
6 | PC-3 [JPC-3] | 0.813 | 0.691 | 0.823 | 0.803 | 0.842 | 0.494 | 0.467 | 0.422 | 0.504 | 0.457 | 0.909 | 0.926 | 0.832 | 0.939 | 0.943 | 1.07 | 0.987 | 0.987 | 1.06 | 0.998
7 | EBC-1 | 0.417 | 0.392 | 0.387 | 0.333 | 0.309 | 0.191 | 0.223 | 0.199 | 0.217 | 0.25 | 0.549 | 0.563 | 0.473 | 0.684 | 0.549 | 0.924 | 0.811 | 0.826 | 0.937 | 0.817
8 | HCC-15 | 0.693 | 0.65 | 0.642 | 0.725 | 0.748 | 1.08 | 0.77 | 0.806 | 0.868 | 0.958 | 1.02 | 1.05 | 1.04 | 0.801 | 0.907 | 0.846 | 0.863 | 0.889 | 0.944 | 0.806
9 | COR-L 105 | 0.866 | 1.07 | 0.925 | 0.644 | 0.782 | 0.384 | 0.374 | 0.359 | 0.325 | 0.304 | 0.848 | 0.772 | 0.959 | 0.807 | 0.779 | 0.968 | 0.94 | 0.853 | 1.01 | 0.735
10 | NCI-H520 | 1.16 | 0.971 | 0.863 | 1.02 | 1.12 | 1.04 | 0.894 | 0.697 | 0.95 | 0.729 | 0.671 | 0.699 | 0.529 | 0.677 | 0.364 | 0.937 | 1.11 | 0.838 | 0.963 | 0.897
11 | LU99A | 0.866 | 0.86 | 0.819 | 0.781 | 0.889 | 0.934 | 0.95 | 1.05 | 0.922 | 0.943 | 1.03 | 1.15 | 1.12 | 1.15 | 0.922 | 0.504 | 0.535 | 0.47 | 0.503 | 0.457
12 | NCI-H1666 | 1.07 | 0.981 | 1.08 | 0.962 | 0.863 | 0.77 | 0.673 | 0.674 | 0.786 | 0.66 | 0.83 | 0.784 | 0.826 | 0.842 | 0.725 | 0.871 | 0.883 | 0.847 | 0.781 | 0.738
13 | LCLC-97TM1 | 0.599 | 0.4 | 0.36 | 0.359 | 0.451 | 1.14 | 1.03 | 1.13 | 0.938 | 0.937 | 0.587 | 1.27 | 0.905 | 0.378 | 0.521 | 0.181 | 0.169 | 0.161 | 0.191 | 0.17
14 | NCI-H1299 | 1.08 | 1.08 | 1.03 | 1.01 | 1.03 | 0.966 | 0.936 | 0.944 | 0.894 | 0.91 | 1.03 | 1.09 | 1.04 | 1.06 | 1.05 | 1 | 1.04 | 1.01 | 1.06 | 0.985
15 | NCI-H3122 | 0.994 | 0.998 | 1.01 | 1.12 | 1.02 | 1.02 | 0.996 | 0.993 | 1.09 | 0.946 | 1.04 | 0.983 | 0.949 | 1.07 | 0.91 | 1.04 | 1.07 | 1.04 | 0.971 | 0.988
16 | NCI-H2009 | 1.29 | 1.17 | 1.19 | 1.16 | 1.15 | 1.2 | 0.899 | 0.832 | 0.853 | 0.577 | 1.08 | 1.06 | 1.18 | 0.246 | 0.962 | 1.21 | 1.23 | 1.3 | 1.23 | 1.16
